For this test, the system named is diabetic rats induced by streptozotocin. The experiment in a line: Retinal vascularity (Evans Blue staining) in diabetic retinopathy model induced by streptozotocin. It is filed as in vivo, SD male rats. Conditions: diabetic rats (group III), CDO 10 mg/ml topical 10 μl/eye TID 28 days. How it is done:
Diabetes was induced in SD male rats by single intraperitoneal injection of streptozotocin (STZ) at 60 mg/kg body weight in citrate buffer (pH 4.5). Seven days after STZ administration, blood glucose was measured and the level of 250 mg/dl was considered the threshold value to consider diabetes induction. Ophthalmic treatment with CDO at 10 mg/ml (topical instillation of 10 μl/eye) was initiated once hyperglycemia was confirmed and continued for 28 days three times a day (TID). Rats were randomly divided in 3 groups: I. Control (non-diabetic), II. Diabetic rats with no treatment and III. Diabetic rats with CDO at 10 mg/ml.
At day 29 CDO was instilled a single time at 10 mg/ml in the group III, rats were euthanized and retinas were collected 15 minutes post-administration.
Retinal vascularity was observed by Evans Blue (EB) staining, based on the ability of EB to bind serum albumin immediately after intravenous injection. Thus Evans Blue 3% was injected through the tail vein at 1 ml/kg at 60 minutes before euthanasia at day 29. Eyeballs were fixed in paraformaldehyde 4%. Retinas were immediately after dissected and mounted in slides and observed by fluorescence microscopy.

Consider `O=S(=O)(O)c1cc(O)ccc1O` [CDO, Calcium dobesilate monohydrate], for which the “Retinal vascularity (fluorescence microscopy, Evans Blue)” value was “well preserved retinas, with well-defined vessels with no evidence of vascular damages”.
